# Source: patent US10765706B2, “Method of stem cell delivery into the brain during chronic disease using blood brain barrier permeabilizers” (University of South Florida, priority 2015, dated 2020)
# How the values were obtained:
# Assay type in all cases: in vivo, Sprague-Dawley rats
# [1] = test system: middle cerebral artery occlusion (MCAO) stroke rats; experiment: Neurogenesis, chronic stroke, FIG. 7; conditions: treatment 1 month after MCAO
# Experimental: (§1) Adult Sprague-Dawley rats initially received sham surgery or experimental stroke via the one-hour middle cerebral artery occlusion (MCAO) model, as disclosed in Example 2. At 1 month after the MCAO surgery, stroke animals were randomly assigned to receive human umbilical cord stem cells only (2 million viable cells), mannitol only (1.1 mol/L mannitol at 4° C.), combined human umbilical cord stem cells (200,000 viable cells) and mannitol (1.1 mol/L mannitol at 4° C.), and vehicle (phosphate buffered saline, PBS) only.
# (§2) The hUCBC (Saneron CCEL Therapeutics, Inc., Tampa, Fla.) were thawed at 37° C. Cells were washed and centrifuged three times (1000 rpm for 7 minutes). Viability was determined using the trypan blue dye exclusion method and cell concentration was adjusted to 10,000 cells/μl. A minimum of 85% viability post-thaw was required for a sample to be used for transplantation. For hUCBC+BBB, 200,000 hUCB cells were suspended in 10 μl PBS in a 28-gauge Hamilton syringe. For hUCBC only, 2×10^6 cells were suspended in […] PBS. The BBB only treatment was injected as prepared. Treatments were administered by intra-arterial injection into the internal carotid artery where the embolic filament was previously inserted. Infusion rate was 1 μl per minute as determined by using a micro-infusion pump.
# [2] = test system: middle cerebral artery occlusion (MCAO) stroke rats; experiment: Motor asymmetry, chronic stroke (treatment 1 month after MCAO), FIG. 1; conditions: intra-arterial, hUCBC only 2 million cells, combination 200,000 cells + 1.1 mol/L mannitol
# Experimental: as §1, §2
# [3] = test system: middle cerebral artery occlusion (MCAO) stroke rats; experiment: Histological analysis of brain cell survival, chronic stroke, FIG. 2; conditions: treatment 1 month after MCAO
# Experimental: The hUCBC (Saneron CCEL Therapeutics, Inc., Tampa, Fla.) were thawed at 37° C. Cells were washed and centrifuged three times (1000 rpm for 7 minutes). Viability was determined using the trypan blue dye exclusion method and cell concentration was adjusted to 10,000 cells/μl. A minimum of 85% viability post-thaw was required for a sample to be used for transplantation. For hUCBC+BBB, 200,000 hUCB cells were suspended in 10 μl PBS in a 28-gauge Hamilton syringe. For hUCBC only, 2×10^6 cells were suspended in XX μl PBS. The BBB only treatment was injected as prepared. Treatments were administered by intra-arterial injection into the internal carotid artery where the embolic filament was previously inserted. Infusion rate was 1 μl per minute as determined by using a micro-infusion pump.
compound,measurement,setting,value
OC[C@@H](O)[C@@H](O)[C@H](O)[C@H](O)CO [mannitol],"neurogenesis, increase above sham-operated rats",[1],without concomitant neurogenesis
same,motor asymmetry,[2],lowered the motor asymmetry slightly
same,"cell survival (brain damage, peri-infarct area)",[3],significant brain damage
